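Method: 48-hour compound exposure of cells in 96-well plates, five concentrations, linear interpolation of endpoints. Abbreviation: GI50, concentration required for 50% inhibition of growth.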 Calls of active or inactive are those of the source. No stated cut-off is given here; in the data, active = GI50 up to about 1.1 µM and inactive = higher.
What was measured:
Test in all cases: growth of human tumour cells (NCI), 48 h
RPMI-8226 = tested on: RPMI-8226
SNB-19 = tested on: SNB-19
M19-MEL = tested on: M19-MEL
NCI-H23 = tested on: NCI-H23
A549 = tested on: A549
SW-620 = tested on: SW-620
XF498 = tested on: XF498
SR = tested on: SR
COLO 205 = tested on: COLO 205
UO-31 = tested on: UO-31
HL-60 = tested on: HL-60
DLD-1 = tested on: DLD-1
LOX IMVI = tested on: LOX IMVI
DMS-273 = tested on: DMS-273
SF-539 = tested on: SF-539
OVCAR-8 = tested on: OVCAR-8
SK-MEL-28 = tested on: SK-MEL-28
SK-OV-3 = tested on: SK-OV-3

| SMILES | GI50 (RPMI-8226) | GI50 (SNB-19) | GI50 (M19-MEL) | GI50 (NCI-H23) | GI50 (A549) | GI50 (SW-620) | GI50 (XF498) | GI50 (SR) | GI50 (COLO 205) | GI50 (UO-31) | GI50 (HL-60) | GI50 (DLD-1) | GI50 (LOX IMVI) | GI50 (DMS-273) | GI50 (SF-539) | GI50 (OVCAR-8) | GI50 (SK-MEL-28) | GI50 (SK-OV-3) |
| --- | --- | --- | --- | --- | --- | --- | --- | --- | --- | --- | --- | --- | --- | --- | --- | --- | --- | --- |
| CS(=O)(=O)NNS(=O)(=O)c1ccccc1 | > 100 µM (inactive) | > 100 µM (inactive) | > 100 µM (inactive) | > 100 µM (inactive) | > 100 µM (inactive) | > 100 µM (inactive) | > 100 µM (inactive) | > 100 µM (inactive) | > 100 µM (inactive) | > 100 µM (inactive) | > 100 µM (inactive) | > 100 µM (inactive) | > 100 µM (inactive) | > 100 µM (inactive) | > 100 µM (inactive) | > 100 µM (inactive) |  |  |
| CC/C(=N/O)c1ccc2[nH]c3c(C)cc([N+](=O)[O-])c(C)c3c2c1 | 52.7 µM (inactive) | > 100 µM (inactive) | 50.2 µM (inactive) | 82.4 µM (inactive) | 17.1 µM (inactive) | 84.7 µM (inactive) | 50.2 µM (inactive) | 24.4 µM (inactive) | 71.4 µM (inactive) | 57.8 µM (inactive) | 12.7 µM (inactive) | 16.2 µM (inactive) | 54.1 µM (inactive) | 19.4 µM (inactive) | 51.5 µM (inactive) | 53.2 µM (inactive) | > 100 µM (inactive) |  |
| C/C=C/C1(NS(=O)(=O)c2ccc(C)cc2)CCC(C(C)(C)C)CC1 (stereo not drawn) | 21.6 µM (inactive) | 42.2 µM (inactive) | 19.7 µM (inactive) | 18.8 µM (inactive) | 40.7 µM (inactive) | 26.1 µM (inactive) | 20.2 µM (inactive) | 13.6 µM (inactive) | 20 µM (inactive) | 25.4 µM (inactive) | 23.4 µM (inactive) | 35.8 µM (inactive) |  | 16 µM (inactive) | 21.4 µM (inactive) | 36.1 µM (inactive) |  | 27.4 µM (inactive) |
| COc1ccc(CC2NCCc3cc(OC)c(OC)cc32)cc1 (stereo not drawn) | > 100 µM (inactive) | > 100 µM (inactive) | > 100 µM (inactive) | > 100 µM (inactive) | > 100 µM (inactive) | > 100 µM (inactive) | > 100 µM (inactive) | > 100 µM (inactive) | > 100 µM (inactive) | > 85.3 µM (inactive) | > 100 µM (inactive) | > 100 µM (inactive) | > 100 µM (inactive) | > 100 µM (inactive) | > 100 µM (inactive) | > 100 µM (inactive) | > 100 µM (inactive) | > 100 µM (inactive) |
| CC1=C(C(=O)Nc2ccccc2C)C(c2ccccc2O)C(C(=O)Nc2ccccc2C)=C(C)N1 | 20.3 µM (inactive) | 23.4 µM (inactive) | 21 µM (inactive) | 34.2 µM (inactive) | 33.7 µM (inactive) | 33 µM (inactive) | 22.3 µM (inactive) | 12.3 µM (inactive) |  | 16.8 µM (inactive) | 21 µM (inactive) | 16.8 µM (inactive) | 18.6 µM (inactive) | 17.7 µM (inactive) | 17.3 µM (inactive) | 19.8 µM (inactive) | 28 µM (inactive) |  |
| Cc1c2nc3ccccc3sc-2cc(=O)c1C | 39.8 µM (inactive) | > 100 µM (inactive) | 15.8 µM (inactive) | 10.3 µM (inactive) | 48.8 µM (inactive) | > 90.2 µM (inactive) | 28.4 µM (inactive) | > 10 µM (inactive) | 34.7 µM (inactive) | 36 µM (inactive) | 14.1 µM (inactive) | 12.7 µM (inactive) | 29.8 µM (inactive) | 50.6 µM (inactive) | 44.9 µM (inactive) | 49.7 µM (inactive) |  | > 100 µM (inactive) |
| CCOC(=O)COc1cccc2c1C(=O)CCO2 | > 100 µM (inactive) | > 100 µM (inactive) | > 100 µM (inactive) | > 100 µM (inactive) | > 100 µM (inactive) | > 100 µM (inactive) | > 100 µM (inactive) |  | > 100 µM (inactive) | > 100 µM (inactive) | > 100 µM (inactive) | > 100 µM (inactive) | > 100 µM (inactive) | > 100 µM (inactive) | > 100 µM (inactive) | > 100 µM (inactive) | > 100 µM (inactive) | > 100 µM (inactive) |
| Clc1ccc(-c2c(C3=NCCN3)nnn2-c2ccc(Cl)cc2)cc1 | 16.7 µM (inactive) | 29.4 µM (inactive) | 16.6 µM (inactive) | 35.2 µM (inactive) | 53.2 µM (inactive) | 25.9 µM (inactive) | 15 µM (inactive) | 13.4 µM (inactive) | 12.6 µM (inactive) | 14.4 µM (inactive) | 17.5 µM (inactive) | 27.9 µM (inactive) | 39.4 µM (inactive) | 42.2 µM (inactive) | 18.2 µM (inactive) | 58.3 µM (inactive) | 25.1 µM (inactive) | 29.6 µM (inactive) |
| N#CC(Sc1ccccc1)C(N)=O (stereo not drawn) | > 100 µM (inactive) | > 100 µM (inactive) | > 100 µM (inactive) | > 100 µM (inactive) | > 100 µM (inactive) | > 100 µM (inactive) | > 100 µM (inactive) | > 100 µM (inactive) | > 100 µM (inactive) | > 100 µM (inactive) | > 100 µM (inactive) | > 100 µM (inactive) | > 100 µM (inactive) | > 100 µM (inactive) | > 100 µM (inactive) | > 100 µM (inactive) |  | > 100 µM (inactive) |
| CCCCNS(=O)(=O)c1ccc(-c2ccc3c(c2)-c2ccc(S(=O)(=O)NCCCC)cc2S3(=O)=O)cc1 | 27.9 µM (inactive) |  | 21.5 µM (inactive) | 12.7 µM (inactive) | 14 µM (inactive) | 15.2 µM (inactive) | 10.3 µM (inactive) | 72.1 µM (inactive) | 25.3 µM (inactive) | 42.5 µM (inactive) | > 100 µM (inactive) | 43.6 µM (inactive) | 15 µM (inactive) | 20 µM (inactive) | 12.1 µM (inactive) | 7.98 µM (inactive) | 10 µM (inactive) | 16.9 µM (inactive) |
| C[Si](C)(C)/C(Br)=C\CCN1C(=O)CCC1=O |  | > 100 µM (inactive) | > 100 µM (inactive) | > 100 µM (inactive) | > 100 µM (inactive) | > 100 µM (inactive) | > 100 µM (inactive) | > 100 µM (inactive) | > 100 µM (inactive) | > 100 µM (inactive) | > 100 µM (inactive) | > 100 µM (inactive) | > 100 µM (inactive) | > 100 µM (inactive) | > 100 µM (inactive) | > 100 µM (inactive) | > 100 µM (inactive) | > 100 µM (inactive) |
| O=C1c2ccccc2C(=O)N1C/C=N/NS(=O)(=O)c1ccc(Cl)cc1 | > 100 µM (inactive) | > 100 µM (inactive) | > 100 µM (inactive) | > 100 µM (inactive) | > 100 µM (inactive) | > 100 µM (inactive) | > 100 µM (inactive) | > 100 µM (inactive) | > 100 µM (inactive) | > 100 µM (inactive) | > 100 µM (inactive) | > 100 µM (inactive) | > 100 µM (inactive) | > 100 µM (inactive) | > 100 µM (inactive) | > 100 µM (inactive) |  |  |
| C[C@@H](NC1CCCC[C@H]1O)c1ccccc1 (stereo partly drawn) | > 100 µM (inactive) | > 100 µM (inactive) | > 100 µM (inactive) | > 100 µM (inactive) | > 100 µM (inactive) | > 100 µM (inactive) | > 100 µM (inactive) |  | > 100 µM (inactive) | > 100 µM (inactive) | > 100 µM (inactive) | > 100 µM (inactive) | > 100 µM (inactive) | > 100 µM (inactive) | > 100 µM (inactive) | > 100 µM (inactive) | > 100 µM (inactive) | > 100 µM (inactive) |
| COc1cccc(-c2cc(O)c3cc4c(cc3n2)OCO4)c1 | 0.492 µM (active) | 0.109 µM (active) | 0.128 µM (active) | 0.287 µM (active) | 0.313 µM (active) | 0.034 µM (active) | 0.042 µM (active) | 0.169 µM (active) | 0.132 µM (active) | 0.182 µM (active) | 0.0605 µM (active) | 0.126 µM (active) | 0.0857 µM (active) | 0.147 µM (active) | 0.0603 µM (active) | 0.22 µM (active) | > 53.1 µM (inactive) | 0.0374 µM (active) |
| CCN(CC)CCOc1ccc(C(O)(Cc2ccc(OC)cc2)c2ccccc2)cc1 (stereo not drawn) | 13.4 µM (inactive) | 24.6 µM (inactive) | 15.4 µM (inactive) | 17 µM (inactive) | 21.8 µM (inactive) | 17.2 µM (inactive) | 14 µM (inactive) | 10.7 µM (inactive) | 12 µM (inactive) | 22 µM (inactive) | 7.52 µM (inactive) | 18.3 µM (inactive) | 14.3 µM (inactive) | 14.3 µM (inactive) | 12.4 µM (inactive) | 33.6 µM (inactive) | 13.9 µM (inactive) | 23.6 µM (inactive) |
| CCCCCCCCCCCCCC(=O)O[C@H]1CC[C@H](NC(=O)[C@H](OC)[C@H](O)[C@@H](O)[C@H](O)/C=C/C(C)C)C(=O)N(C)C1 [BENGAMIDE B] | 0.0895 µM (active) | 0.008 µM (active) | 0.00611 µM (active) | 0.00977 µM (active) | < 0.0015 µM (active) | 0.00433 µM (active) | 0.0164 µM (active) | 0.0021 µM (active) | 0.00259 µM (active) | 0.0208 µM (active) | 0.01 µM (active) | 0.00705 µM (active) | 0.00216 µM (active) | < 0.0015 µM (active) | 0.0108 µM (active) | 0.00782 µM (active) | 0.0113 µM (active) | 0.0721 µM (active) |

Source: ChEMBL document CHEMBL1201862, “PubChem BioAssay data set” (2004)
